In patent US20170168067A1, “CHROMATIN-ACTIVITY-BASED CHEMOPROTEOMIC (CHAC) METHODS AND SYSTEMS FOR DISEASE MARKER DISCOVERY AND DEVELOPMENT” (The University of North Carolina at Chapel Hill, priority 2014, published 2017):
Values belong to the compound of their own block, whether it stands above or below them. Peptide text beside a SMILES is read from it. * marks the point of attachment. Cbz = O=C(OCc1ccccc1)*

Key:
c-Myc [1] = experiment: c-Myc accumulation after proteasome inhibition, immunoblot; assay type: cell-based, mouse; settings: LPS-primed, 10 mM MG-132
Method: Raw264.7 or TLR4/MD2/CD14 293 cell lines were primed with 100 ng/ml^−1 LPS for 24 h and then treated with 1 mg/ml^−1 cycloheximide (Sigma-Aldrich; #C4859) for indicated time. Cells were harvested and subjected to immunoblot analysis by using anti-c-Myc antibody. Exposed films of immunoblot were scanned and quantified by ImageJ densitometry software. The intensity of each band was plotted in scatter plot and c-Myc half-life was determined on computed curve. Raw264.7 cells were primed with 100 ng/ml^−1 LPS for 24 h and then treated with 10 mM MG-132 for time indicated. C-Myc accumulation was reflected in immunoblot against c-Myc by short- and long-exposure. b-Actin and g-Tubulin were represented as loading controls.

G9a [2] = experiment: ChIP abundance of G9a within T-class promoters; assay type: cell-based, mouse; settings: pre-treated TL cells
Method: (§1) ChIP experiments for studying histone modifiers and TFs were carried out in dual crosslinking way (Porro et al., 2007) with minor modifications. Cells were fixed using 2 mM DSG (disuccinimidyl glutarate, ProteomChem #c1104) for 45 min. Formaldehyde (1% v/v) was then added and incubated for 15 min. Crosslinking reactions were quenched by adding glycine to 0.1 M, followed by PBS washing. Cells were scraped and nuclei were pelleted by 0.5% NP-40 lysis buffer (50 mM pH 8.0 Tris-HCl, 85 mM KCl, 0.5% NP-40). The nuclear fraction was extracted with RIPA buffer (50 mM pH 8.0 Tris-HCl, 150 mM NaCl, 1 mM EDTA, 1% Triton-X-100, 0.1% SDS, 0.1% sodium deoxycholate) and sonicated to 200 to 1,000 bp DNA fragments, then incubated overnight with the antibody. The antibody complexes were linked to protein A/salmon sperm DNA beads (Cell Signaling, cat #9007) and washed thoroughly. The complexes were then eluted from the beads by 1% SDS, and incubated with NaCl to reverse the crosslinked products. Later, proteins were digested by protease-K and the released DNA was purified by QIAquick PCR purification Kit (Qiagen, cat #28104), and processed to quantitative PCR assay. ChIP experiments for studying histone post-PTMs were started from a one-step fixation of 1% (v/v) formaldehyde for 10 min, followed by the same steps as dual crosslinking ChIP described above.

BMDM secretome = experiment: Label-free quantitative analysis of macrophage secretome; assay type: cell-based, mouse; settings: BMDMs under TL pre-treated with 250 nM for 16 h
Method: Referring now to FIG. 1, cells were then either left unstimulated (N) or subjected to a single LPS challenge at 500 ng/ml^−1 for indicated hours (NL) or first primed with 100 ng/ml^−1 LPS to induce the ET for 24 h, followed by the second LPS challenge at 500 ng/ml^−1 for indicated hours (TL). Before the LPS challenge, cells were washed once and cultured in serum-free DMEM without phenolred, containing 1 mM sodium pyruvate and 10 mM L-glutamine. The secreted proteins were harvested and prepared (Meissner et al., 2013).
LFQ secretome analyses were performed via reversed phase LC-MS/MS using a Proxeon 1000 nano LC system coupled to an Q Exactive mass spectrometer (Thermo Scientific). […]
Label-free quantitation was based on the peak area (Cox et al., 2008; Gunawardena et al., 2013; Gunawardena et al., 2011; Porro et al., 2007). The measured area under the curve of m/z and retention time aligned extracted ion chromatogram (XIC) of a peptide was performed via the label-free quantitation module found in MaxQuant™ (vera 1.3.0.5) (Cox et al., 2008). All replicates (biological and technical replicates) of each experimental conditions: N, NL-16 h, TL-16 h, were included in the LFQ experimental design with protein-level quantitation and normalization performed using unique and razor peptide features corresponding to identifications filtered with a peptide FDR of 0.01 and protein FDR of 0.05. […]

HDAC1 = experiment: ChIP-PCR binding of HDAC1 to T-gene (IL6) promoter; assay type: cell-based, mouse; settings: treated BMDMs during ET
Method: as §1

MTA1 = experiment: ChIP-PCR binding of MTA1 to T-class genes; assay type: cell-based, mouse; settings: treated BMDMs
Method: as §1

c-Myc [3] = experiment: ChIP-qPCR binding of c-Myc to gene loci; assay type: cell-based, mouse
Method: as §1

H3K36me2 = experiment: immunoblot analysis of dimethylated H3K36; assay type: cell-based, mouse; settings: treated vs non-treated BMDMs, TL
Method: (§2) Core histone proteins were prepared by Histone Purification Mini Kit (Active Motif; cat#40026). Adhered cells were washed with prewarmed serum-free media twice and were then harvested. The pellet was lysed with 1.5 ml extraction buffer per 2×10^7 cells and homogenized by repetitive pipetting. The cell lysate was processed under agitation for 2 h at 4° C. before the crude histone was clarified, neutralized and loaded onto the column. Histone proteins were purified by a C8 column and were precipitated by 4% perchloric acid according to the manufacturer's instructions and were resolved in HPLC water. All steps were processed on ice or in cold room, for the maximum preservation of histone modifications.

H3K9me2 = experiment: ChIP analysis with anti-H3K9me2 antibody in BMDMs; assay type: cell-based, mouse; settings: BMDMs treated prior to LPS stimulation; inhibitor pre-treated TL cells compared with NL
Method: as §1

G9a [4] = molecular target: T1, G9a (Homo sapiens, UniProt Q96KQ7); settings: Vedadi et al., 2011; cited from earlier work
T1 sequence (Q96KQ7 1-1210): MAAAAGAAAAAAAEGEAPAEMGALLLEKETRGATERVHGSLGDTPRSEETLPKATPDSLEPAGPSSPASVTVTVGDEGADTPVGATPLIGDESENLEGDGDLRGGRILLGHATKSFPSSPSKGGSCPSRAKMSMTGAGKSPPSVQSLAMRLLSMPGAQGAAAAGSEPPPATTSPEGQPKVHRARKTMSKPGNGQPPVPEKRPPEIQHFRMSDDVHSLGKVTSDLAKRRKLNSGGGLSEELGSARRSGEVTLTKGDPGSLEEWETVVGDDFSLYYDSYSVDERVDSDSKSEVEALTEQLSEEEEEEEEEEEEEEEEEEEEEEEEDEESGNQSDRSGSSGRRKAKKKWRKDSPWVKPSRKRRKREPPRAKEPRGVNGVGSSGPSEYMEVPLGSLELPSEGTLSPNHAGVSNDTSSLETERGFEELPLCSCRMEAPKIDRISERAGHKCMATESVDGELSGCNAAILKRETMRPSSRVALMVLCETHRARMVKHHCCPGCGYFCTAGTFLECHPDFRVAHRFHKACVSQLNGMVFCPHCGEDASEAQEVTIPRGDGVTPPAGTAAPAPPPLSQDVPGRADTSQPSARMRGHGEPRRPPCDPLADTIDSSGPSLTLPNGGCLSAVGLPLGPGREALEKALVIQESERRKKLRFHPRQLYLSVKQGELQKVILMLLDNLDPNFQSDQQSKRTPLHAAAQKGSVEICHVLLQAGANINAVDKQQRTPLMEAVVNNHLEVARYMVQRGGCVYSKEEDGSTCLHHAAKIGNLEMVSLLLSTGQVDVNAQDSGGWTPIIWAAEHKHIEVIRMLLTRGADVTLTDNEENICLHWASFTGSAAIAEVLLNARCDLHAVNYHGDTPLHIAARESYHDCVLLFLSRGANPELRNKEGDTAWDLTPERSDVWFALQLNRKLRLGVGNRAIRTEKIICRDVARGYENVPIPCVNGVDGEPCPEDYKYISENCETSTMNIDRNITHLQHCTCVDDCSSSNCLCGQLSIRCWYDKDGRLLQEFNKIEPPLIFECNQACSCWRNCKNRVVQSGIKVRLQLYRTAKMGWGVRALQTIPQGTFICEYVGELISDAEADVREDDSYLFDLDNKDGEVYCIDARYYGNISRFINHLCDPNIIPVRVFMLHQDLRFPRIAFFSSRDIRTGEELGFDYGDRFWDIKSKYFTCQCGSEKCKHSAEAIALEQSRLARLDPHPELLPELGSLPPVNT

Raw264.7 cells = experiment: Clonogenic survival assay; assay type: cell-based, mouse; parameters: dose or concentration left out as unconfirmed
Method: Raw264.7 cells were counted and plated in six-well cell culture plates with 50, 100 and 200 viable cells in duplicated wells. Cells were primed with 100 ng/ml^−1 LPS for […] to reach the condition of ET and replenished with fresh media. […] After 9-day cell growth, cell colonies were washed with PBS, fixed with a mixture of methanol-acetic acid (3:1 in volume ratio) for 10 min, stained with 10% Giemsa (Ricca Chemical Company, Arlington, Tex., United States of America) for 30 min, gently washed with water and air dried. The colonies containing more than 20 cells were counted and the percentage of the survived cells under each condition was determined compared with the number of colonies on non-LPS or UNC0638-treated plates.

H3K27 = experiment: immunoblot analysis of methylated H3K27; assay type: cell-based, mouse; settings: treated cells
Method: as §2

SMILES: CC(C)C[C@@H](C=O)NC(=O)[C@H](CC(C)C)NC(=O)[C@H](CC(C)C)NC(=O)OCc1ccccc1 [MG-132] (Cbz-Leu-Leu-Leu-aldehyde)
- c-Myc level with post-treatment time (c-Myc [1]; G9a-KD Raw264.7 cells): progressive accumulation
- c-Myc level with longer post-treatment time (c-Myc [1]; wild-type Raw264.7 cells (presence of G9a)): reduced

SMILES: O=C(CCCCCCC(=O)Nc1ccccc1)NO [SAHA]
- abundance of G9a within the T-class promoters (G9a [2]): reduced

- IL6-specific binding of HDAC1 (HDAC1): diminished
- TL-specific binding of MTA1 to T-class genes (MTA1): diminished
- c-Myc binding to the NT-genes (c-Myc [3]): not affected
- c-Myc binding to the loci of IL6 (c-Myc [3]; treated BMDMs under TL): diminished
- c-Myc binding to IL6, IP-10 and p21 (c-Myc [3]; under TL): reduced
SMILES: COc1cc2c(NC3CCN(C(C)C)CC3)nc(C3CCCCC3)nc2cc1OCCCN1CCCC1 [UNC0638, 2-Cyclohexyl-N-(1-isopropylpiperidin-4-yl)-6-methoxy-7-(3-(pyrrolidin-1-yl)propoxy) quinazolin-4-amine]
- share of 992 identified proteins showing repressed releases whose secretion levels increased (BMDM secretome): 45%
- level of H3K36me2 (H3K36me2): decreased
- change in H3K9me2 (ChIP) (H3K9me2): greater decreases
- change in abundance of G9a (G9a [4]): little change
- percentage of survived cells (Raw264.7 cells; cells under TL, 9-day growth): significantly reduced
- percentage of survived cells (Raw264.7 cells; non-treated (non-LPS) wild-type cells): little effect
- methylated level of H3K27 (H3K27): reduced
